Source: patent US20120058989A1, “ANTIBACTERIAL FLUOROQUINOLONE ANALOGS” (Achaogen, Inc., priority 2008, published 2012)
Values after ≈ are worked out from the molar mass of the structure shown. Where two headings read alike, the source gives them in different places. Each block holds one compound with its values, some of them ahead of it.

Experiments:
Assay in all cases: MIC, CLSI broth microdilution
Assay type in all cases: cell-based
[1] = tested on: A. baumannii AABA1065 (Fluoroquinolone-susceptible); conditions: for MIC: Acinetobacter baumannii
Outline: (§1)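 Broth microdilution per CLSI M7-A7, with serial two-fold compound dilutions in Mueller Hinton Broth mixed 1:1 with inoculum. Colonies from a previous-day agar plate were suspended in saline to a final 5×10^5 CFU/mL. Plates were incubated 20 hours at 35° C. in ambient air.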

[2] = tested on: S. aureus ASAU002 (Fluoroquinolone-susceptible, ATCC33591 (MRSA)); conditions: Table 3; for MIC: Staphylococcus aureus
Outline: as §1

[3] = tested on: S. pneumoniae ASPN1027 (Fluoroquinolone-resistant); conditions: for MIC: Streptococcus pneumoniae
Outline: as §1

[4] = tested on: E. coli AECO066 (Fluoroquinolone-resistant); conditions: for MIC: Escherichia coli
Outline: as §1

[5] = tested on: A. baumannii AABA1009 (Fluoroquinolone-resistant); conditions: for MIC: Acinetobacter baumannii, Table 2, read-out: MIC AABA 1009
Outline: as §1

[6] = tested on: P. aeruginosa APAE054 (Fluoroquinolone-resistant); conditions: for MIC: Pseudomonas aeruginosa
Outline: as §1

[7] = tested on: S. aureus ASAU1031 (Fluoroquinolone-resistant); conditions: for MIC: Staphylococcus aureus
Outline: as §1

[8] = tested on: E. coli AECO086 (Fluoroquinolone-resistant); conditions: Table 3; for MIC: Escherichia coli
Outline: as §1

[9] = tested on: S. aureus ASAU1033 (Fluoroquinolone-resistant); conditions: Table 3; for MIC: Staphylococcus aureus
Outline: as §1

[10] = tested on: A. baumannii AABA1020 (Fluoroquinolone-resistant); conditions: Table 3; for MIC: Acinetobacter baumannii
Outline: as §1

[11] = tested on: S. aureus ASAU001 (Fluoroquinolone-susceptible, ATCC29213); conditions: for MIC: Staphylococcus aureus
Outline: as §1

[12] = tested on: S. pneumoniae ASPN1018 (Fluoroquinolone-resistant); conditions: Table 3; for MIC: Streptococcus pneumoniae
Outline: as §1

[13] = tested on: E. coli AECO001 (Fluoroquinolone susceptible, ATCC25922); conditions: for MIC: Escherichia coli
Outline: as §1

[14] = tested on: S. pneumoniae ASPN001 (Fluoroquinolone-susceptible, ATCC49619); conditions: for MIC: Streptococcus pneumoniae
Outline: as §1

[15] = tested on: P. aeruginosa APAE002 (Fluoroquinolone susceptible); conditions: Table 3; for MIC: Pseudomonas aeruginosa
Outline: as §1

[16] = tested on: E. coli AECO002 (Fluoroquinolone susceptible); conditions: Table 3; for MIC: Escherichia coli
Outline: as §1

[17] = tested on: P. aeruginosa APAE001 (Fluoroquinolone-susceptible, ATCC27853); conditions: for MIC: Pseudomonas aeruginosa
Outline: as §1

[18] = tested on: S. pneumoniae ASPN002 (Fluoroquinolone-susceptible, ATCC10813); conditions: Table 3; for MIC: Streptococcus pneumoniae
Outline: as §1

[19] = Table 2, read-out: MIC AABA 1065
[20] = Table 2, read-out: MIC ASPN 1027
[21] = Table 2, read-out: MIC AECO 066
[22] = Table 2, read-out: MIC APAE 054
[23] = Table 2, read-out: MIC ASAU 1031
[24] = Table 2, read-out: MIC ASAU 001
[25] = Table 2, 35° C., 20 hours, read-out: MIC AECO 001
[26] = Table 2, read-out: MIC ASPN 001
[27] = Table 2, read-out: MIC APAE 001

MIC AABA 1065 ([1]; Table 2): A (MIC's of 1.0 μg/mL or less = A)
MIC AABA 1065 ([1]; Table 3): A (MIC's of less than 1.0 = A)
MIC ASAU002 [2]: A (MIC's of less than 1.0 = A)
MIC ASPN 1027 ([3]; Table 3): B (MIC's of 1.0 μg/mL to 2.0 μg/mL = B)
MIC AECO 066 ([4]; Table 2): C (MIC's of greater than 8.0 μg/mL = C)
MIC AECO 066 ([4]; Table 3): D (MIC's of greater than 8.0 μg/mL = D)
MIC AABA 1009 ([5]; Table 2): C (MIC's of greater than 8.0 μg/mL = C)
MIC APAE 054 ([6]; Table 2): C (MIC's of greater than 8.0 μg/mL = C)
MIC APAE 054 ([6]; Table 3): D (MIC's of greater than 8.0 μg/mL = D)
MIC ASAU 1031 ([7]; Table 3): B (MIC's of 1.0 μg/mL to 2.0 μg/mL = B)
MIC AECO086 [8]: D (MIC's of greater than 8.0 μg/mL = D)
MIC ASAU1033 [9]: D (MIC's of greater than 8.0 μg/mL = D)
MIC AABA1020 [10]: D (MIC's of greater than 8.0 μg/mL = D)
MIC ASAU 001 ([11]; Table 2): A (MIC's of 1.0 μg/mL or less = A)
MIC ASAU 001 ([11]; Table 3): A (MIC's of less than 1.0 = A)
MIC ASPN1018 [12]: C (MIC's of 2.0 μg/mL to 8.0 μg/mL = C)
MIC AECO 001 ([13]; Table 2, 35° C., 20 hours): A (MIC's of 1.0 μg/mL or less = A)
MIC AECO 001 ([13]; Table 3): A (MIC's of less than 1.0 = A)
MIC ASPN 001 ([14]; Table 2): A (MIC's of 1.0 μg/mL or less = A)
MIC ASPN 001 ([14]; Table 3): A (MIC's of less than 1.0 = A)
MIC APAE002 [15]: A (MIC's of less than 1.0 = A)
MIC AECO002 [16]: A (MIC's of less than 1.0 = A)
MIC APAE 001 ([17]; Table 3): B (MIC's of 1.0 μg/mL to 2.0 μg/mL = B)
MIC ASPN002 [18]: A (MIC's of less than 1.0 = A)
Compound: N[C@H]1CCN2c3c(F)cc4c(=O)c(C(=O)O)cn(C5CC5)c4c3CCC[C@H]12.O=C(O)C(F)(F)F [17/10, (7aR,8S)-8-Amino-4-cyclopropyl-12-fluoro-1-oxo-4,5,6,7,7a,8,9,10-octahydro-1H-pyrrolo[1′,2′:1,7]azepino-[2,3-h]quinoline-2-carboxylic acid trifluoroacetate]
MIC ASPN 1027 ([3]; Table 2): B (MIC's of greater than 1.0 μg/mL to 8.0 μg/mL = B)
MIC ASAU 1031 ([7]; Table 2): B (MIC's of greater than 1.0 μg/mL to 8.0 μg/mL = B)
MIC APAE 001 ([17]; Table 2): B (MIC's of greater than 1.0 μg/mL to 8.0 μg/mL = B)

MIC [1, 19]: ≤ 1 µg/mL
MIC ([1]; Table 3): < 1 µg/mL
MIC [2]: < 1 µg/mL
MIC [3, 20]: > 8 µg/mL
MIC ([3]; Table 3): > 8 µg/mL
MIC [4, 21]: > 8 µg/mL
MIC ([4]; Table 3): > 8 µg/mL
MIC [5]: > 8 µg/mL
MIC [6, 22]: > 8 µg/mL
MIC ([6]; Table 3): > 8 µg/mL
MIC [7, 23]: > 8 µg/mL
MIC ([7]; Table 3): > 8 µg/mL
MIC [8]: > 8 µg/mL
MIC [9]: > 8 µg/mL
MIC [10]: > 8 µg/mL
MIC [11, 24]: ≤ 1 µg/mL
MIC ([11]; Table 3): < 1 µg/mL
MIC [12]: > 8 µg/mL
MIC [13, 25]: ≤ 1 µg/mL
MIC ([13]; Table 3): < 1 µg/mL
MIC [14, 26]: 1 to 8 µg/mL (≈ 2.77 to 22.1 µM)
MIC ([14]; Table 3): 1 to 2 µg/mL (≈ 2.77 to 5.53 µM)
MIC [15]: < 1 µg/mL
MIC [16]: < 1 µg/mL
MIC [17, 27]: 1 to 8 µg/mL (≈ 2.77 to 22.1 µM)
MIC ([17]; Table 3): 1 to 2 µg/mL (≈ 2.77 to 5.53 µM)
MIC [18]: 1 to 2 µg/mL (≈ 2.77 to 5.53 µM)
Compound: C[C@H]1COc2c(N3CCN(C)CC3)c(F)cc3c(=O)c(C(=O)O)cn1c23 [Levofloxacin, reference compound]

MIC [1, 19]: ≤ 1 µg/mL
MIC ([1]; Table 3): < 1 µg/mL
MIC [2]: < 1 µg/mL
MIC [3, 20]: 1 to 8 µg/mL (≈ 2.49 to 19.9 µM)
MIC ([3]; Table 3): 2 to 8 µg/mL (≈ 4.98 to 19.9 µM)
MIC [4, 21]: > 8 µg/mL
MIC ([4]; Table 3): > 8 µg/mL
MIC [5]: > 8 µg/mL
MIC [6, 22]: > 8 µg/mL
MIC ([6]; Table 3): > 8 µg/mL
MIC [7, 23]: 1 to 8 µg/mL (≈ 2.49 to 19.9 µM)
MIC ([7]; Table 3): 2 to 8 µg/mL (≈ 4.98 to 19.9 µM)
MIC [8]: > 8 µg/mL
MIC [9]: > 8 µg/mL
MIC [10]: > 8 µg/mL
MIC [11, 24]: ≤ 1 µg/mL
MIC ([11]; Table 3): < 1 µg/mL
MIC [12]: 2 to 8 µg/mL (≈ 4.98 to 19.9 µM)
MIC [13, 25]: ≤ 1 µg/mL
MIC ([13]; Table 3): < 1 µg/mL
MIC [14, 26]: ≤ 1 µg/mL
MIC ([14]; Table 3): < 1 µg/mL
MIC [15]: 1 to 2 µg/mL (≈ 2.49 to 4.98 µM)
MIC [16]: < 1 µg/mL
MIC [17, 27]: 1 to 8 µg/mL (≈ 2.49 to 19.9 µM)
MIC ([17]; Table 3): 1 to 2 µg/mL (≈ 2.49 to 4.98 µM)
MIC [18]: < 1 µg/mL
Compound: COc1c(N2C[C@@H]3CCCN[C@@H]3C2)c(F)cc2c(=O)c(C(=O)O)cn(C3CC3)c12 [Moxifloxacin, reference compound]
